# Assay results as given in ChEMBL document CHEMBL1687746, “Impact of sarA on daptomycin susceptibility of Staphylococcus aureus biofilms in vivo” (2009).
# The source made the active and inactive calls. No cut-off for these calls is given here.
# Assays:
# Staphylococcus aureus [1] = experiment: Antimicrobial activity against Staphylococcus aureus UAMS-1 assessed as reduction in bacterial load in catheter at >/= 10 ug/ml for 3 days; format: functional, organism-based
# Staphylococcus aureus [2] = experiment: Antimicrobial activity against Staphylococcus aureus UAMS-1 assessed as reduction in bacterial load in catheter at 20 ug/ml for 3 days; format: functional, organism-based
# Staphylococcus aureus [3] = experiment: Antimicrobial activity against Staphylococcus aureus UAMS-1653 assessed as bacterial load in catheter at 10 times MIC; format: functional
# Staphylococcus aureus [4] = experiment: Antimicrobial activity against Staphylococcus aureus UAMS-1625 by Etest method; format: functional
# Staphylococcus aureus [5] = experiment: Antimicrobial activity against Staphylococcus aureus UAMS-1 assessed as bacterial load in catheter at 20 times MIC; format: functional
# Staphylococcus aureus [6] = experiment: Antimicrobial activity against Staphylococcus aureus UAMS-1 sarA mutant by Etest method
# Staphylococcus aureus [7] = experiment: Antimicrobial activity against Staphylococcus aureus UAMS-929 assessed as bacterial load in catheter at 20 times MIC; format: functional
# Staphylococcus aureus [8] = experiment: Antimicrobial activity against Staphylococcus aureus UAMS-1625 reduction in bacterial load in catheter at 20 ug/ml for 3 days; format: functional, organism-based
# Staphylococcus aureus [9] = experiment: Antimicrobial activity against Staphylococcus aureus UAMS-1625 sarA mutant by Etest method; format: functional
# Staphylococcus aureus [10] = experiment: Antimicrobial activity against Staphylococcus aureus UAMS-1 by Etest method
# Staphylococcus aureus [11] = experiment: Antimicrobial activity against Staphylococcus aureus UAMS-1625 assessed as bacterial load in catheter at 10 times MIC; format: functional
smiles,measurement,setting,value
CCCCCCCCCC(=O)N[C@@H](Cc1c[nH]c2ccccc12)C(=O)N[C@H](CC(N)=O)C(=O)N[C@@H](CC(=O)O)C(=O)N[C@@H]1C(=O)NCC(=O)N[C@@H](CCCN)C(=O)N[C@@H](CC(=O)O)C(=O)N[C@H](C)C(=O)N[C@@H](CC(=O)O)C(=O)NCC(=O)N[C@H](CO)C(=O)N[C@@H]([C@H](C)CC(=O)O)C(=O)N[C@@H](CC(=O)c2ccccc2N)C(=O)O[C@@H]1C,Activity,Staphylococcus aureus [1],Active
same,Activity,Staphylococcus aureus [2],inactive
same,Activity,Staphylococcus aureus [3],69%
same,MIC,Staphylococcus aureus [4],0.38 µg/mL
same,Activity,Staphylococcus aureus [5],6.7%
same,MIC,Staphylococcus aureus [6],0.5 µg/mL
same,Activity,Staphylococcus aureus [7],46.4%
same,Activity,Staphylococcus aureus [8],Active
same,MIC,Staphylococcus aureus [9],0.38 µg/mL
same,MIC,Staphylococcus aureus [10],0.5 µg/mL
same,Activity,Staphylococcus aureus [11],6.3%
